Experimental data: patent publication US12187770B2, “Cyclic peptide from novel bone morphogenetic protein 2, preparation method therefor and application thereof” (Hangzhou Huibo Science and Technology Co., Ltd, priority 2019, dated 2025)
Bridge positions count the residues as written; N and C are the ends. Peptide text beside a SMILES is read from it.

Assay: Acute toxicity in animals
Details: in vivo

CC[C@H](C)[C@@H]1NC(=O)[C@H](C)NC(=O)[C@H](CO)NC(=O)[C@H](CC(C)C)NC(=O)[C@H](CCC(=O)O)NC(=O)[C@H]([C@@H](C)O)NC(=O)[C@@H]2CCCN2C(=O)[C@H](C(C)C)NC(=O)[C@H](CO)NC(=O)[C@H](CO)NC(=O)[C@H](C)NC(=O)[C@H](CCCCN)NC(=O)[C@@H]2CCCN2C(=O)[C@H]([C@@H](C)CC)NC(=O)[C@H](CCCCN)NC(=O)[C@@H](N)CSSC[C@@H](C(=O)O)NC(=O)[C@H](C)NC(=O)[C@H](C(C)C)NC(=O)[C@H]([C@@H](C)CC)NC(=O)[C@H](Cc2c[nH]c3ccccc23)NC(=O)[C@H](CC(=O)O)NC(=O)CNC(=O)CNC(=O)[C@@H]2CCCN2C(=O)CNC(=O)[C@H](CC(C)C)NC(=O)[C@H](Cc2ccc(O)cc2)NC(=O)[C@H](CC(C)C)NC(=O)[C@H](CCSC)NC(=O)[C@H](CO)NC1=O [M-C-BMP2] (H-CKIPKASSVPTELSAISMLYLGPGGDWIVAC-OH; disulfide 1-31)
acute toxicity in animals: has not been found to have acute toxicity in animals
